In patent US20060217351A1, “Method for treating cardiovascular diseases” (priority 2003, published 2006):

Experiments:
[1] = system: platelet aggregation; assay: anti-platelet aggregation ability of active metabolite enantiomers; details: enantiomers of active metabolite II
Source text: The active metabolite is a mixture of four enantiomers each of which has shown dose dependent anti-platelet aggregation ability, and thus useful for the practice of the invention.

[2] = system: cerebral infarct; assay: embolic cerebral infarction model; type: in vivo; details: rats
[3] = system: thrombus formation; details: rats, p.o., cited from earlier work; for ED50, prevention of thrombus formation: arteriovenous shunt model
[4] = system: platelet aggregation; assay: comparative study of inhibition of platelet aggregation; type: in vivo; details: for inhibition of platelet aggregation: in thirty (30) minutes
[5] = storage stability of crystals; type: physicochemical; details: crystal form comparison

| Structure (SMILES) | effect on total area of cerebral infarct [2] | ED50, prevention of thrombus formation [3] [mg/kg] | inhibition of platelet aggregation [4] | storage stability [5] | also measured |
| --- | --- | --- | --- | --- | --- |
| O=C(O)/C=C1/CN(C(C(=O)C2CC2)c2ccccc2F)CCC1S (stereo not drawn) [RS enantiomer] |  |  |  |  | anti-platelet aggregation ability [1]: most potent |
| COC(=O)[C@H](c1ccccc1Cl)N1CCc2sccc2C1 [clopidogrel bisulfate] | similar, yet milder effect on cerebral infarcts |  |  |  | potency compared to compound of formula I (times less potent) [2]: about 10 times |
| COC(=O)[C@H](c1ccccc1Cl)N1CCc2sccc2C1 [clopidogrel, reference compound] |  | 7.0 | minimal aggregation |  |  |
| CC(=O)Oc1cc2c(s1)CCN(C(C(=O)C1CC1)c1ccccc1F)C2 (stereo not drawn) [compound of formula I, 2-Acetoxy-5-(α-cyclopropylcarbonyl-2-fluorobenzyl)-4,5,6,7-tetrahydrothieno[3,2-c]pyridine] | reduced the total area of cerebral infarct in rats, in a dose related manner | 0.65 | greater than 50% |  | effect on thrombus formation ([3]; 0.12-3 mg/kg): prevented thrombus formation in a dose dependent manner; potency compared to clopidogrel (times higher) ([4]; in vivo, versus clopidogrel): approximately 10 times |
| CC(=O)Oc1cc2c(s1)CCN(C(C(=O)C1CC1)c1ccccc1F)C2.Cl (stereo not drawn) [crystal B1, 2-Acetoxy-5-(α-cyclopropylcarbonyl-2-fluorobenzyl)-4,5,6,7-tetrahydrothieno[3,2-c]pyridine hydrochloride (crystal B1)] |  |  |  | more excellent storage stability than crystal A |  |
| CC(=O)Oc1cc2c(s1)CCN(C(C(=O)C1CC1)c1ccccc1F)C2.Cl (stereo not drawn) [crystal B2, 2-Acetoxy-5-(α-cyclopropylcarbonyl-2-fluorobenzyl)-4,5,6,7-tetrahydrothieno[3,2-c]pyridine hydrochloride (crystal B2)] |  |  |  | more excellent storage stability than crystal B1 |  |
